# Read-outs that look alike come from different tables or passages of the source. Where no end group is shown, it is not given here.
# Columns and labels:
# [1] = Reversibility of 6-AGDL acylated G-H6 and non-His-tagged peptides; assay type: physicochemical; settings: 6-AGDL acylated peptide, 14 days at room temperature, 1M HEPES pH 7.5
# Protocol: 100 μM of G-H6-Beltide-1, GGKWSKR-Beltide-1 and GGTYSDH-Beltide-1 peptides were reacted at 4° C. with 6-AGDL in 1M HEPES, pH 7.5 by sequentially adding 100 mM 6-AGDL twice in 3 h intervals. Extra 6-AGDL was not removed, and the samples were stored at room temperature throughout the experiment.
# 2 μL from each sample were taken at each time point except for day 14. 10 μL of 2% acetic acid was added to each timepoint sample and the mixtures were desalted by C18 ZipTip chromatography. Eluate was analyzed by MALDI-TOF MS as before.
# At day 14 the remaining samples underwent recovery procedure where all of the reaction mixtures were acidified by adding 20% of reaction volume of 50% (v/v) acetic acid [final concentration 7.57% acetic acid (v/v)] and then adding 10% reaction volume of 100% acetonitrile [final concentration ACN […]]. Of this mixture, 15 μL aliquots were taken, cleaned by ZipTip C18 Chromatography and analyzed by MALDI-TOF-MS instrumentation.
# [2] = system: N-terminally gluconoyl-labelled Beltide-1 derivative peptide PP6; experiment: Boron-containing reagents to modulate reversibility (heat-accelerated deacylation); assay type: physicochemical; settings: 5 mM additive, 50 μM peptide; for Remaining gluconoyl-label, pH 7.5 after 15 h at 50° C.: 50 mM HEPES/NaOH buffer; for Remaining gluconoyl-label, pH 6.8 after 15 h at 50° C.: 50 mM phosphate/KOH buffer
# Protocol: To explore the reversibility modulating effect of various boron-containing molecules, a small library of reagents was tested at pH 7.5 (50 mM HEPES/NaOH buffer) and pH 6.8 (50 mM phosphate/KOH buffer).
# Reaction supplemented with 5 mM of additive; calculated as the ratio of the TIC for the labelled divided by the sum of TICs of both labelled and unlabeled species.
# [3] = system: 6-AGDL acylated GSS-H6-Beltide-1
# Protocol: The volume was then made up to 15 mL to give a 1 M stock solution.
# pH 6 buffer was made by preparing a 1 M stock solution of citric acid monohydrate and by making a solution of 1 M sodium citrate dihydrate. The two solutions were mixed to give a 1 M stock solution of pH 6.
# pH 7.5 buffer was made by mixing a 1 M stock solution of potassium phosphate monobasic with 1 M solution of potassium phosphate dibasic to give a pH of 7.5.
# pH 8.8 buffer was prepared by titrating 1 M solution of acetic acid with ammonium solution to give pH 8.8.
# 20 μM 6-AGDL modified peptide was stored in 100 μL aliquots in 200 mM buffer as indicated. The vials (triplicates) were incubated in a 37° C. water bath throughout the experiment and were retrieved for sample acquisition for <30 mins at room temperature before they were returned to the water bath.
# 10 μL of subsamples for pH 4, 6 and 8.8 were acidified with 5 μL of 20% (v/v) acetic acid and subjected to C18 ZipTip purification. Samples were analyzed in positive reflectron mode with MALDI-TOF MS.
# pH 7.5 samples were stored in the presence of 10% ACN (v/v) to counteract precipitation. For pH 7.5 samples, 15 μL aliquots were taken for each time point and desalted using 0.1% TFA-70% ACN/0.1% TFA C18 Zip-Tip procedure. 0.5 μL of the Eluate was mixed 1:1 with C1CCA matrix mixture and spotted onto a MALDI steel target prior to detection in reflector positive mode MALDI-TOF MS.
# [4] = system: serine protease trypsin; settings: 50 mM boric acid
# [5] = system: non-activated HEK-produced RBD; experiment: Endpoint anti-RBD ELISA of sera of immunized mice; set-up: species or system SARS-CoV-2; settings: in vivo
# [6] = system: Pseudovirus; experiment: Pseudovirion neutralization assay; assay type: cell-based, SARS-CoV-2; settings: mice sera day 42, after a total of 3 immunizations
# Protocol: The conjugate material was then used to immunize mice at 10 μg per dose formulated in AddaVax (Invivogen) according to the manufacturer on Day 0. Boosts with the same dose and formulation were performed on day 14 and day 28. Sera samples were taken before each immunization for immunological studies. Animals were sacrificed on day 42.
# Pseudovirion neutralization assays were performed with samples obtained at day 42 according to standard procedures known in the art.
# [7] = system: GDL acylated G-H6-Beltide-1; experiment: Effect of copper ions on reversibility of acylation; assay type: physicochemical; settings: various CuSO4 concentrations, pH 7.5, 37° C.
# Protocol: FIG. 3: Reversibility of GDL:G-H6-Beltide-1 in the presence of various CuSO4 and EDTA concentrations at pH 7.5. GDL acylated G-H6-Beltide-1 was produced as before, extra GDL was removed by C18 reverse phase purification and the acylated peptide (20 μM) was stored in 50 mM HEPES (NaOH) buffer supplemented with various concentrations of CuSO4 and EDTA at 37° C. Change in acylation status was monitored by MALDI-TOF MS TIC and is reported as the relative m/z ratio of the acylated (m1) and non-acylated species (m2) ([m1/z/(m1/z+m2/z)]*100%).
# 1 mM G-H6-Beltide-1 (˜1 mg of peptide) was acylated with 100 mM GDL in 200 mM HEPES (NaOH) pH 7.5 for 1 h at room temperature in a total volume of ˜300 μL. Upon addition of buffer to peptide but before addition of GDL, precipitation was clearly observed. This precipitation may be due to the theoretical pI of G-H6-Beltide-1 being close to pH 7.5, or because G-H6-Beltide-1 is a Beltide-1 variant. Beltide-1 is known to form nanodiscs in solution upon contact with membrane proteins or lipid components (Midtgaard et al. 2014; Martos-Maldonado et al. 2018). GDL was added to 100 mM from a freshly prepared 1 M stock solution. The solution remained cloudy. […] The acylated peptide was analyzed by MALDI-MS and initial acylation extent was estimated to be ˜96%, stored at −20° C. until further usage. […]
# [8] = system: GDL-acylated GSS-H6-Beltide-1 peptide; experiment: Effect of nickel ions on reversibility of acylation; assay type: physicochemical; settings: 0.01-1 mM NiSO4, pH 7.5, 37° C., up to day 7
# Protocol: GSS-H6-Beltide-1 peptide was GDL-acylated and extra GDL was removed via C18 SepPack chromatography. GDL-acylated peptide was dissolved in 100 mM HEPES (NaOH), pH 7.5, 10% ACN (v/v) to a final concentration of ˜100 μM and aliquoted into 0.5 mL LoBind (Eppendorf) microcentrifuge tubes. NiSO4 was supplemented to 0, 0.01, 0.1, and 1 mM final concentration from a 100 mM NiSO4 stock in H2O. A control sample was supplemented with a pre-mixed solution of NiSO4 and EDTA, to give a final concentration of 1 mM NiSO4 and 5 mM EDTA [stock solution 10 mM NiSO4 and 50 mM EDTA (NaOH neutralized)]. The samples (50 μL volume each) were kept in a water bath at 37° C. Aliquots of 2 μL were taken on day 1, 3, 5, and 7, mixed with 10 μL of 5% acetic acid, purified by C18 ZipTip chromatography and analyzed by MALDI-TOF-MS instrumentation.
# [9] = system: GDL-acylated GSS-H6-Beltide-1 peptide; experiment: Effect of zinc ions on reversibility of acylation; assay type: physicochemical; settings: day 7
# Protocol: GSS-H6-Beltide-1 peptide was GDL-acylated and extra GDL was removed via C18 SepPack chromatography. GDL:peptide was dissolved in 100 mM HEPES (NaOH), pH 7.5 with or without ZnSO4 (0.2 mM and 2 mM) to a final concentration of ˜100 μM. ACN was added to 10% v/v to reduce possible nanodisc formation and precipitation of the peptide to the plastic microcentrifuge wall. The reaction mixtures (100 μL volume each) were kept in a water bath at 37° C. Aliquots of 2 μL were taken at day 3, mixed with 10 μL of 5% acetic acid, purified by C18 ZipTip chromatography and analyzed by MALDI-TOF-MS instrumentation. […] The remaining reaction mixture (80 μL) was acidified by adding 50% (v/v) acetic acid. The amount of acetic acid to be added was calculated as 20% of the remaining reaction volume [final concentration 7.57% acetic acid v/v]. Likewise, 10% reaction volume of 100% acetonitrile were added (final concentration acetonitrile ˜16.6% v/v) and the reaction was mixed by quick vortexing. Of this mixture, 15 μL aliquots were processed via C18 ZipTip chromatography and analyzed by MALDI-TOF-MS instrumentation. We speculate that the peptide had bound to the microcentrifuge wall and assumed that the precipitation affected both acylated and non-acylated species equally.
molecule,measurement,setting,value
GHHHHHHDWLKAFYDKVAEKLKEAF [PP1],remaining acylation,[1],27%
CB(O)O [methylboronic acid],"Remaining gluconoyl-label, pH 7.5 after 15 h at 50° C.",[2],~59%
same,"Remaining gluconoyl-label, pH 6.8 after 15 h at 50° C.",[2],~6%
"OB(O)O [boric acid, Boric acid]",reversibility of acylation,"[3]; >50 mM boric acid, pH 8.8, 7 days, 37° C.",effectively inhibited
same,reversibility of acylation,"[3]; pH 4, 37° C.",no effect was observed
same,reversibility of acylation,"[3]; pH 6, 37° C.",modulated the reversibility
same,"Remaining gluconoyl-label, pH 7.5 after 15 h at 50° C.",[2],~69%
same,"Remaining gluconoyl-label, pH 6.8 after 15 h at 50° C.",[2],~8%
same,inhibition of trypsin,[4],did not measurably inhibit
O=Cc1ccccc1B(O)O [2-formylphenylboronic acid],"Remaining gluconoyl-label, pH 7.5 after 15 h at 50° C.",[2],~99%
same,"Remaining gluconoyl-label, pH 6.8 after 15 h at 50° C.",[2],~95%
O=Cc1ccc(B(O)O)cc1 [4-formylphenylboronic acid],"Remaining gluconoyl-label, pH 7.5 after 15 h at 50° C.",[2],~95%
same,"Remaining gluconoyl-label, pH 6.8 after 15 h at 50° C.",[2],~46%
GGTYSDHDWLKAFYDKVAEKLKEAF [GGTYSDH-Beltide-1],remaining acylation,[1],75%
OB(O)c1ccccc1 [phenylboronic acid],"Remaining gluconoyl-label, pH 7.5 after 15 h at 50° C.",[2],~83%
same,"Remaining gluconoyl-label, pH 6.8 after 15 h at 50° C.",[2],~31%
Qbeta: Qbeta VLPs (SEQ ID NO: 86) produced in E. coli,anti-RBD response (ELISA titers) after a single injection,[5],did not show a measurable response
same,% of neutralization at dilution 1:300,[6],17.24%
GGKWSKRDWLKAFYDKVAEKLKEAF [GGKWSKR-Beltide-1],remaining acylation,[1],~64%
O=S(=O)([O-])[O-].[Cu+2] [CuSO4],rate of reversibility,[7],decreasing rate of reversibility as a function of increasing CuSO4 concentration
O=S(=O)([O-])[O-].[Ni+2] [NiSO4],reversibility of acylation,[8],seemingly abolished reversibility
"OB1OCc2cc(F)ccc21 [tavaborole, 5-Fluoro-1,3-dihydro-1-hydroxy-2,1-benzoxaborole]","Remaining gluconoyl-label, pH 7.5 after 15 h at 50° C.",[2],~87%
same,"Remaining gluconoyl-label, pH 6.8 after 15 h at 50° C.",[2],~87.9%
O=S(=O)([O-])[O-].[Zn+2] [ZnSO4],remaining gluconoylation,"[9]; 0.2 mM ZnSO4, pH 7.5, 37° C.",~80%
same,remaining gluconoylation,"[9]; 2 mM ZnSO4, pH 7.5, 37° C.",~75%

# From patent US20230212216A1, “SYNTHESIS OF LACTONE DERIVATIVES AND THEIR USE IN THE MODIFICATION OF PROTEINS” (priority 2019, published 2023)
